The record followed here is ChEMBL document CHEMBL1146389, “Synthesis and evaluation of prodrugs for anti-angiogenic pyrrolylmethylidenyl oxindoles” (2007).

In experiment [1] the test system is HUVEC. Nature of the experiment: Inhibition of VEGF-stimulated angiogenesis in HUVECs. Format: functional, cell-based. To be noted: Homo sapiens.
In experiment [2] the test system is HUVEC. Nature of the experiment: Inhibition of VEGF-stimulated angiogenesis in HUVECs at 1 uM relative to control. The class given is functional. The following applies: Homo sapiens.

By inhibition is commonly meant the change of the read-out against control, counted positive when it falls. A lower inhibition goes with a weak effect.

As for `Cc1cc(C)c(/C=C2\C(=O)N(Cc3ccc([N+](=O)[O-])cc3)c3ccccc32)[nH]1`, the Activity result in experiment [1] is “Dose-dependent effect”.

The compound `Cc1cc(C)c(/C=C2\C(=O)Nc3ccccc32)[nH]1` [SEMAXANIB] returned an inhibition at 1 µM in experiment [2] of 94%.
